Broadly, the melting point is the temperature, or range, at which the solid turns liquid.

50 molecules from a melting point compilation (Tetko et al.) can be followed below.

In turn, `O=C(O)c1cc(Cl)ccc1OCC(F)(F)F` yielded a melting point of 121 to 123 °C.
With `Cc1coc(-c2ccc(C)c(N)c2)n1`, the melting point is 114 to 116 °C.
The molecule `Nc1nc(-c2ccc3c(c2)OCCO3)n[nH]1` yielded a melting point of 178 to 180 °C.
Then `O=C(O)CN1C(=O)CCC1=O`, with 91 to 93 °C.
Then `COC(=O)c1ccc(C)c(NCc2[nH]cnc2C)c1`, with 180 to 182 °C.
`Cc1[nH]c(C(=O)O)c(C)c1S(N)(=O)=O` yielded a melting point of 214 to 216 °C.
Then `Nc1ccc(-n2ccnc2)cc1C(F)(F)F`, with 109 to 111 °C; and `CC(C)c1cc(C(C)C)c([N+](=O)[O-])cc1[N+](=O)[O-]`, with 77 to 79 °C; and `COc1ccccc1-c1nnc(S)n1N`, with 210 to 220 °C.
As for `OC1(c2ccccc2)CCC1`, the melting point fell in the range of 39 to 41 °C.
Regarding `O=Cc1cc(Cl)cc(Cl)c1OC(F)F`, the melting point is 51 to 53 °C.
In the case of `CNc1cc(-c2cccc(OC)c2)[nH]n1`, the melting point fell in the range of 109 to 111 °C.
To `Cc1ccc(NC(=O)C2CSCN2)c(C)c1` (stereo not given) belongs 89 to 91 °C; to `NC(=O)C1COc2ccccc2O1` (stereo not given), 141 to 143 °C.
To `OCc1cnc2ccccn12` belongs 123 to 125 °C; to `CC(NC(=O)OC(C)(C)C)c1ccc(-c2cccc(C#N)c2)cc1` (stereo not given), 103 to 105 °C.
To `COc1ccc(C(=O)O)cc1N1CCNC1=O` belongs 246 to 248 °C; to `CN(c1cc(C(=O)O)ccn1)C1CCCC1`, 179 to 181 °C.
The molecule `Cc1nc(CO)c(C)s1` gave a melting point of 44 to 46 °C.
To `Fc1ccccc1-c1nnc(CCl)o1` belongs 86 to 88 °C; to `CN1CCN(C(=O)C2CCc3ccccc3N2)CC1` (stereo not given), 113 to 115 °C.
In turn, `c1ccc(-c2cc[nH]c2)nc1` gave a melting point of 126 to 128 °C.
To `O=C(O)CCCN1C(=O)CCC1=O` belongs 102 to 104 °C; to `CC1(C)CCCCC1=CC(=O)O`, 89 to 91 °C.
To `COC(=O)c1ccccc1-c1ccc(C=O)o1` belongs 68 to 72 °C.
Then `CN(C)S(=O)(=O)c1ccccc1C#N`, with 57 to 59 °C; and `O=C(O)C1CCCN(C(=O)c2ccccn2)C1` (stereo not given), with 167 to 169 °C; and `NNC(=O)CNc1ccccc1F`, with 99 to 101 °C.
The molecule `O=C(O)c1ccc2c(c1)C(=O)N(C1CCCCC1)C2=O` displayed a melting point of 188 to 201 °C.
On to `CCOCCCNC(N)=S`, for which the melting point was 84 to 86 °C.
`Cc1cc(N)nn1-c1cccc(Cl)c1`: the melting point lay in the range of 58 to 60 °C.
In the case of `COc1ccc2ncc(=O)[nH]c2c1`, the melting point lay in the range of 179 to 181 °C.
To `O=C1NC(=O)C(CCS)N1` (stereo not given) belongs 133 to 135 °C.
For `NC(=O)CC1CC2CCC1C2` (stereo not given), the melting point lay in the range of 152 to 154 °C.
`CC(C)(C)c1nccc(N)n1` registered a melting point of 64 to 66 °C.
For `CC(=O)N(C)c1cccc(N)c1`, the melting point lay in the range of 114 to 116 °C.
In turn, `Cn1cnc([N+](=O)[O-])c1Br` registered a melting point of 177 to 179 °C.
Then `NC(=S)COc1ccc(Cl)cc1`, with 107 to 111 °C.
On to `Oc1nnc(S)n1CCc1ccccc1`, for which the melting point lay in the range of 167 to 169 °C.
Then `Nc1ccccc1C(=O)NCCO`, with 92 to 94 °C.
To `O=C1Nc2cc(F)c(Cl)cc2C1=O` belongs 256 to 258 °C.
In turn, `CC(C)C(=O)NC(C)C(=O)O` (stereo not given) gave a melting point of 154 to 156 °C.
Then `C#CCN1CCC(NC2CCOCC2)CC1`, with 74 to 76 °C; and `NS(=O)(=O)c1ccc(NC(=O)C(=O)O)cc1`, with 259 to 261 °C.
To `O=C(Nc1ccccc1)c1ccc(Cl)nn1` belongs 213 to 215 °C.
`CCCc1c(C(=O)O)[nH]c(C)c1C(C)=O`: the melting point was in the range of 214 to 216 °C.
Then `CN1C(=O)c2ccc(C(=O)O)cc2S1(=O)=O`, with 249 to 251 °C; and `ClCc1nc2cccnc2s1`, with 65 to 67 °C.
Then `O=C=Nc1ccc2c(c1)OCO2`, with 48 to 51 °C; and `O=C(C1CCNCC1)N1CCc2ccccc21`, with 67 to 69 °C.
